According to ChEMBL document CHEMBL5149985, “Discovery of cytotoxic natural products from Red Sea sponges: Structure and synthesis” (Eur J Med Chem, 2021):

What was measured:
BT-474 = assay: Anticancer activity against human BT-474 cells assessed as cell growth inhibition incubated for 48 hrs by MTT assay; assay type: functional, cell-based; conditions: BT-474, 48 h
P388 [1] = assay: Anticancer activity against mouse P388 cells assessed as reduction in cell growth; assay type: functional, cell-based
A549 [2] = assay: Anticancer activity against human A549 cells assessed as inhibition of cell growth by dilution assay; assay type: functional, cell-based
P388 [3] = assay: Anticancer activity against mouse P388 cells assessed as inhibition of cell growth by dilution assay; assay type: functional, cell-based
HT-29 [4] = assay: Anticancer activity against human HT-29 cells assessed as inhibition of cell growth by dilution assay; assay type: functional, cell-based
HCT-116 [5] = assay: cells; conditions: Homo sapiens
Description: Anticancer activity against human HCT-116 cells assessed as inhibition of cell growth by MTT assay

MCF7 [6] = assay: Anticancer activity against human MCF7 cells assessed as inhibition of cell growth by MTT assay; assay type: functional, cell-based
HepG2 [7] = assay: cells; conditions: Homo sapiens
Description: Anticancer activity against human HepG2 cells assessed as inhibition of cell growth by MTT assay

PC-3 = assay: Anticancer activity against human PC-3 cells assessed as inhibition of cell growth; assay type: functional, cell-based
MCF7 [8] = assay: Anticancer activity against human MCF7 cells assessed as inhibition of cell growth; assay type: functional, cell-based
A549 [9] = assay: Anticancer activity against human A549 cells assessed as cell growth inhibition; assay type: functional, cell-based
MDA-MB-231 [10] = assay: Antiproliferative activity against human MDA-MB-231 cells assessed as cell growth inhibition incubated for 72 hrs by SRB assay; assay type: functional, cell-based; conditions: MDA-MB-231, 72 h
HT-29 [11] = assay: Antiproliferative activity against human HT-29 cells assessed as cell growth inhibition incubated for 72 hrs by SRB assay; assay type: functional, cell-based; conditions: HT-29, 72 h
A549 [12] = assay: Antiproliferative activity against human A549 cells assessed as cell growth inhibition incubated for 72 hrs by SRB assay; assay type: functional, cell-based; conditions: A549, 72 h
P388 [13] = assay: Anticancer activity against mouse P388 cells assessed as inhibition of cell growth; assay type: functional, cell-based
HT-29 [14] = assay: Anticancer activity against human HT-29 cells assessed as cell growth inhibition; assay type: functional, cell-based
P388 [15] = assay: Anticancer activity against mouse P388 cells assessed as cell growth inhibition; assay type: functional, cell-based
A549 [16] = assay: Anticancer activity against human A549 cells assessed as inhibition of cell growth; assay type: functional, cell-based
HT-29 [17] = assay: Anticancer activity against human HT-29 cells assessed as inhibition of cell growth; assay type: functional, cell-based
Daoy = assay: Anticancer activity against human Daoy cells assessed as inhibition of cell growth; assay type: functional, cell-based
HeLa [18] = assay: Anticancer activity against human HeLa cells assessed as inhibition of cell growth; assay type: functional, cell-based
L5178Y [19] = assay: Anticancer activity against mouse L5178Y assessed as cell growth inhibition by [3H]-thymidine assay; assay type: functional, cell-based
L5178Y [20] = assay: Anticancer activity against mouse L5178Y assessed as cell growth inhibition by [3H]-thymidine assay relative to control; assay type: functional
MDA-MB-231 [21] = assay: Anticancer activity against human MDA-MB-231 cells assessed as cell viability measured after 24 hrs by MTT assay; assay type: functional, cell-based; conditions: MDA-MB-231, 24 h
HCT-116 [22] = assay: Antiproliferative activity against human HCT-116 cells assessed as cell viability measured after 24 hrs by MTT assay; assay type: functional, cell-based; conditions: HCT-116, 24 h
HeLa [23] = assay: Antiproliferative activity against human HeLa cells assessed as cell viability measured after 24 hrs by MTT assay; assay type: functional, cell-based
OVCAR-3 = assay: Anticancer activity against human OVCAR-3 cells assessed as cell growth inhibition by crystal violet staining based assay; assay type: functional
HT-29 [24] = assay: Anticancer activity against human HT-29 cells assessed as cell growth inhibition by crystal violet staining based assay; assay type: functional
MM1.S = assay: Anticancer activity against human MM1.S cells assessed as cell growth inhibition by MTT assay; assay type: functional, cell-based
HepG2 [25] = assay: Anticancer activity against human HepG2 cells assessed as inhibition of cell growth; assay type: functional, cell-based
MCF7 [26] = assay: Anticancer activity against human MCF7 cells assessed as inhibition of cell growth incubated for 24 hrs by MTT assay; assay type: functional, cell-based; conditions: MCF7, 24 h
A549 [27] = assay: Anticancer activity against human A549 cells assessed as inhibition of cell growth incubated for 24 hrs by MTT assay; assay type: functional, cell-based; conditions: A549, 24 h

Question: Which IC50 (BT-474) does the source give for `O[C@]12CCCCCC[C@@H]3CCN4CCC[C@@H](CCCCCC[C@@H]5CCN(CCC1)[C@H]2O5)[C@@H]4O3` here?
Answer: 9.3 µM

Question: Which IC50 (P388 [1]) does the source give for `CC1=CCC[C@H]2[C@](C)(CC3=CC(=O)C=C(O)C3=O)[C@@H](C)CC[C@]12C` here?
Answer: 0.0018 µM

Question: What does the source list for `CC(=O)O[C@@H]1c2occc2[C@@H](O)C[C@H]2[C@]3(C)CC[C@H]4C(C)(C)CCC[C@]4(C)[C@H]3C[C@@]21C` [SALMAHYRTISOL A]?
Answer: IC50 (A549 [2]): 0.0022 µM; IC50 (P388 [3]): 0.0022 µM; IC50 (HT-29 [4]): > 0.0022 µM

Question: Which IC50 (A549 [2]) does the source give for `CC(=O)O[C@H]1CC[C@]2(C)[C@H]3C[C@@H](O)[C@]4(C)C5=C(CC[C@H]4[C@]3(C)CC[C@H]2C1(C)C)COC5=O` here?
Answer: 0.0022 µM

Question: What about the IC50 (P388 [3]) of the same molecule?
Answer: 0.0022 µM

Question: And the IC50 (HT-29 [4])?
Answer: > 0.0022 µM

Question: Which IC50 (HCT-116 [5]) does the source give for `CC[C@@]1(C)CCC[C@]2(C)[C@H]3C[C@H](OC(C)=O)[C@]4(C)C=C(C(C)=O)[C@H](OC(C)=O)C[C@H]4[C@]3(C)CC[C@@H]12` here?
Answer: 0.0013 µM

Question: What about the IC50 (MCF7 [6]) of the same molecule?
Answer: 0.0048 µM

Question: And the IC50 (HepG2 [7])?
Answer: 0.0029 µM

Question: Which IC50 (PC-3) does the source give for `C=C1CCC[C@@H]2[C@@](C)(CC[C@@]3(C)CC[C@@H]([C@H](C)C(=O)O)OO3)[C@H](C)CC[C@@]12C` here?
Answer: 44 µM

Question: What about the IC50 (MCF7 [8]) of the same molecule?
Answer: 36 µM

Question: And the IC50 (A549 [9])?
Answer: 24 µM

Question: Which IC50 (MDA-MB-231 [10]) does the source give for `O=C(O)c1cnc(-c2c[nH]c3cc(O)ccc23)c2[nH]c3ccc(O)cc3c12` here?
Answer: 25 µM

Question: And the IC50 (HT-29 [11])?
Answer: 28 µM

Question: And the IC50 (A549 [12])?
Answer: 30 µM

Question: Which IC50 (P388 [13]) does the source give for `CO[C@@]1(C)CCC(C(C)C)=C[C@@H]2[C@H]1CC[C@]2(C)O` here?
Answer: > 0.004 µM

Question: For `C=C(CCCC(C)(C)O)C(=O)CC[C@@]1(C)CC[C@@H]([C@H](C)C(=O)OC)OO1` [AIKUPIKOXIDE D], which IC50 (A549 [9]) is on record?
Answer: ≥ 1 µg/mL

Question: What about the IC50 (HT-29 [14]) of the same molecule?
Answer: ≥ 1 µg/mL

Question: What about the IC50 (P388 [15]) of the same molecule?
Answer: ≥ 1 µg/mL

Question: How did the IC50 (A549 [16]) turn out when `C=C(CCC1=C(C)CCCC1(C)C)C(O)CC[C@@]1(C)CC[C@H]([C@@H](C)C(=O)O)OO1` (stereo partly specified) was run?
Answer: > 0.0024 µM

Question: What about the IC50 (P388 [13]) of the same molecule?
Answer: > 0.0024 µM

Question: And the IC50 (HT-29 [17])?
Answer: > 0.0024 µM

Question: How did the IC50 (Daoy) turn out when `O=C(O)CCCC#C/C=C/CC/C=C/C#C/C=C/Br` was run?
Answer: 0.0765 µM

Question: What about the IC50 (HeLa [18]) of the same molecule?
Answer: 0.138 µM

Question: How did the IC50 (L5178Y [19]) turn out when `O=Cc1c[nH]c2ccccc12` [3-FORMYLINDOLE] was run?
Answer: 0.069 µM

Question: What about the “inhibition (INH)” value (L5178Y [20]) of the same molecule?
Answer: 53%

Question: `COC1=C(Br)C[C@]2(OC=C1Br)ON=C(C(=O)NCCCOc1c(Br)cc(CCN)cc1Br)[C@@H]2O` [PSAMMAPLYSIN A] was tested. Which IC50 (MDA-MB-231 [21]) did it give?
Answer: 3.9 µM

Question: And the IC50 (HCT-116 [22])?
Answer: 8.5 µM

Question: What about the IC50 (HeLa [23]) of the same molecule?
Answer: 8.5 µM

Question: What does the source list for `CC(=O)OC[C@]1(C)CCC[C@]2(C)[C@H]3C[C@@H](O)[C@]4(C)C5=C(CC[C@H]4[C@]3(C)CC[C@@H]12)COC5=O`?
Answer: IC50 (A549 [2]): 0.0022 µM; IC50 (P388 [3]): 0.0022 µM; IC50 (HT-29 [4]): > 0.0022 µM

Question: What does the source list for `O=C1Nc2cc(Br)ccc2[C@@]1(c1cc2ccccc2[nH]1)c1c[nH]c2ccccc12`?
Answer: IC50 (OVCAR-3): 9 µM; IC50 (HT-29 [24]): 12.5 µM; IC50 (MM1.S): 11 µM

Question: How did the IC50 (P388 [1]) turn out when `CC1=CCC[C@H]2[C@](C)(CC3=C(O)C(=O)C=C(O)C3=O)[C@@H](C)CC[C@]12C` was run?
Answer: 0.0036 µM

Question: How did the IC50 (MCF7 [8]) turn out when `C#C/C=C\CCCCC#CC#CCCCCCC#CCO` was run?
Answer: 11.7 µM

Question: `NC(=O)c1cnc(-c2c[nH]c3cc(O)ccc23)c2[nH]c3ccc(O)cc3c12` was tested. Which IC50 (MDA-MB-231 [10]) did it give?
Answer: 42 µM

Question: What about the IC50 (HT-29 [11]) of the same molecule?
Answer: 45 µM

Question: And the IC50 (A549 [12])?
Answer: 35 µM

Question: How did the IC50 (HepG2 [25]) turn out when `C/C1=C/C(=O)O[C@@H]2C[C@@H](CC[C@H](C)/C=C\CC1)O[C@@](O)([C@@H]1CS(=O)(=O)C(=O)N1O)C2` was run?
Answer: 16.3 µM

Question: With `CC(=O)OC1=C(C[C@]2(C)[C@@H](C)CC[C@]3(C)C(C)=CCC[C@@H]23)C(=O)C=CC1=O` as the molecule, how does the IC50 (P388 [1]) read?
Answer: 0.03 µM

Question: What does the source list for `COC(=O)c1c[nH]c2ccc(O)cc12`?
Answer: IC50 (L5178Y [19]): 0.052 µM; inhibition (INH) (L5178Y [20]): 36%

Question: For `COC1=CC(=O)C(C[C@]2(C)[C@@H](C)CC[C@]3(C)C(C)=CCC[C@@H]23)=C(O)C1=O`, which IC50 (P388 [1]) is on record?
Answer: > 0.054 µM

Question: Which results are given for `CCCCCCCC/C=C\CCCCCCC[C@@H](O)C(=O)N[C@@H](CO)[C@H](O)[C@H](O)CCCCCCCCCCCCCCCCCCC`?
Answer: IC50 (HepG2 [25]): 21.3 µM; IC50 (MCF7 [8]): 29.8 µM

Question: Which IC50 (MCF7 [26]) does the source give for `C#C/C=C\CCCCCCCCCCC#CCCC(=O)NCCc1ccccc1` here?
Answer: 18 µM

Question: What about the IC50 (A549 [27]) of the same molecule?
Answer: 24.2 µM
